These molecules were tested on FOXC2-expressing HMLER cells (assay: Cell Titer Glo viability of FOXC2-HMLER cells (high throughput screen and 10-point response)). Details: Homo sapiens; scored relative to parent compound 3; 72 hours; read-out: Activity Score, inhibition of FOXC2-expressing HMLER cells by Formula III compounds.
Assay type: cell-based
How it was run: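 FOXC2-HMLER cells (HMLER run in parallel) seeded at 1,000 cells/well in MEGM, attached 1 h, then given compound in DMSO (2 μM in the screen). After 72 h, viability was read by Cell Titer Glo luminescence.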
`O=C(c1cccc(-n2nnc3cccnc32)c1)N1CCN(c2cccc(Cl)c2)CC1` [Compound 3Q] showed an IC50 of 1 to 20 µM. In the case of `O=C(c1cccc(-n2nnc3cccnc32)c1)N1CCN(C2CCCCC2)CC1` [Compound 3R], the IC50 is reported as 1 to 20 µM. `Cc1cccc(N2CCN(C(=O)c3cccc(-n4nnc5cccnc54)c3)CC2C)c1` (stereo not shown) [Compound 3S] gave an IC50 of 1 to 20 µM. With `Cc1ccc(CN2CCC(CNC(=O)c3cccc(-n4nnc5cccnc54)c3)CC2)cc1` [Compound 3T] the IC50 was 1 to 20 µM. Molecule `COc1cccc(N2CCN(C(=O)c3ccc(C)c(-n4nnc5cccnc54)c3)CC2)c1` [Compound 3U] has an IC50 of 1 to 20 µM. `Cc1ccc(C(=O)N2CCN(c3ccccc3)CC2)cc1-n1nnc2cccnc21` [Compound 3V] was tested, and the IC50 was 1 to 20 µM. `Cc1ccc(C(=O)N2CCN(c3cccc(Cl)c3)CC2)cc1-n1nnc2cccnc21` [Compound 3W] showed an IC50 of 1 to 20 µM. Molecule `Cc1ccc(C)c(N2CCN(C(=O)c3ccc(C)c(-n4nnc5cccnc54)c3)CC2)c1` [Compound 3X] has an IC50 of 1 to 20 µM. Work on `Cc1ccc(Cl)cc1N1CCN(C(=O)c2ccc(C)c(-n3nnc4cccnc43)c2)CC1` [Compound 3Y] yielded an IC50 of 1 to 20 µM. `Cc1ccc(C(=O)N2CCC(Cc3ccccc3)CC2)cc1-n1nnc2cccnc21` [Compound 3Z] was tested, and the IC50 was 1 to 20 µM. Work on `Cc1cccc(N2CCN(C(=O)c3cccc(-n4nnc5cccnc54)c3C)CC2C)c1` (stereo not shown) [Compound 3] yielded an IC50 of less than 1 µM.

Same assay, conditions: Homo sapiens; scored relative to parent compound 4; 72 hours; read-out: Activity Score, inhibition of FOXC2-expressing HMLER cells by Formula IV compounds
`Cc1ccc(C)c(N2CCN(S(=O)(=O)c3c(C)nn(-c4ccc(F)cc4)c3C)CC2)c1` [Compound 4AA] gave an IC50 greater than 20 µM. For `Cc1nn(-c2ccc(F)cc2)c(C)c1S(=O)(=O)N1CCN(c2ccccn2)CC1` [Compound 4AB], the IC50 was greater than 20 µM. Work on `Cc1nn(-c2ccc(F)cc2)c(C)c1S(=O)(=O)N1CCN(c2ccc(F)cc2)CC1` [Compound 4AC] yielded an IC50 greater than 20 µM. `Cc1ccc(-n2nc(C)c(S(=O)(=O)N3CCN(c4ccc(Cl)cc4)CC3)c2C)cc1` [Compound 4AD] was tested, and the IC50 was greater than 20 µM. `Cc1ccc(-n2nc(C)c(S(=O)(=O)N3CCN(c4cccc(C)c4C)CC3)c2C)cc1` [Compound 4AE] showed an IC50 greater than 20 µM. `Cc1ccc(-n2nc(C)c(S(=O)(=O)N3CCN(c4ccccn4)CC3)c2C)cc1` [Compound 4AF] was tested, and the IC50 was greater than 20 µM. `Cc1c(S(=O)(=O)N2CCCN(c3ccc(=O)n(-c4ccc(F)cc4)n3)CC2)cnn1C(F)F` [Compound 4AG] was tested, and the IC50 was greater than 20 µM. `Cc1ccc(-n2nc(N3CCCN(S(=O)(=O)c4cnn(C(F)F)c4C)CC3)ccc2=O)cc1C` [Compound 4AH] showed an IC50 greater than 20 µM. For `Cc1ccc(-n2nc(N3CCCN(S(=O)(=O)c4cnn(C(F)F)c4C)CC3)ccc2=O)cc1` [Compound 4AI], the IC50 was greater than 20 µM. For `Cc1c(S(=O)(=O)N2CCN(c3ccc(=O)n(-c4ccc(F)cc4)n3)CC2)cnn1C(F)F` [Compound 4AJ], the IC50 was greater than 20 µM. `Cc1ccc(-n2nc(N3CCN(S(=O)(=O)c4cnn(C(F)F)c4C)CC3)ccc2=O)cc1C` [Compound 4AK] was tested, and the IC50 was greater than 20 µM. For `Cc1c(S(=O)(=O)N2CCN(c3ccc(=O)n(-c4ccccc4)n3)CC2)cnn1C(F)F` [Compound 4AL], the IC50 was greater than 20 µM. `Cc1c(S(=O)(=O)N2CCN(c3ccc(=O)n(-c4ccc(Cl)cc4)n3)CC2)cnn1C(F)F` [Compound 4AM] showed an IC50 greater than 20 µM. `Cc1c(S(=O)(=O)N2CCN(C)c3ccccc32)cnn1C(F)F` [Compound 4AN] gave an IC50 greater than 20 µM. In the case of `Cc1nn(-c2ccc(-c3ccccc3)nn2)c(C)c1S(=O)(=O)N1CCN(c2ccccc2)CC1` [Compound 4AO], the IC50 is reported as greater than 20 µM. `Cc1nn(-c2ccc(-c3ccccc3)nn2)c(C)c1S(=O)(=O)N1CCN(c2ccccn2)CC1` [Compound 4AP] gave an IC50 greater than 20 µM. `Cc1cccc(N2CCN(S(=O)(=O)c3c(C)nn(-c4ccc(-c5ccccc5)nn4)c3C)CC2)c1` [Compound 4AQ] gave an IC50 greater than 20 µM. For `Cc1ccccc1N1CCN(S(=O)(=O)c2c(C)nn(-c3ccc(-c4ccccc4)nn3)c2C)CC1` [Compound 4AR], the IC50 was greater than 20 µM. Work on `Cc1ccc(N2CCN(S(=O)(=O)c3c(C)nn(-c4ccc(-c5ccccc5)nn4)c3C)CC2)cc1` [Compound 4AS] yielded an IC50 greater than 20 µM. In the case of `Cc1ccc(-c2ccc(-n3nc(C)c(S(=O)(=O)N4CCN(c5ccccc5)CC4)c3C)nn2)cc1` [Compound 4AT], the IC50 is reported as greater than 20 µM. `Cc1ccc(-c2ccc(-n3nc(C)c(S(=O)(=O)N4CCN(C(C)C)CC4)c3C)nn2)cc1` [Compound 4AU] was tested, and the IC50 was greater than 20 µM. For `Cc1c(S(=O)(=O)N2CCN(c3cc(-c4cccc(F)c4)ncn3)CC2)cnn1C(F)F` [Compound 4A], the IC50 was less than 1 µM. `Cc1ccccc1-c1cc(N2CCN(S(=O)(=O)c3cnn(C(F)F)c3C)CC2)ncn1` [Compound 4B] showed an IC50 of less than 1 µM. With `COc1cccc(-c2cc(N3CCN(S(=O)(=O)c4cnn(C(F)F)c4C)CC3)ncn2)c1` [Compound 4C] the IC50 was less than 1 µM. `Cc1ccc(C)c(N2CCN(S(=O)(=O)c3c(C)nn(C)c3C)CC2)c1` [Compound 4D] gave an IC50 of less than 1 µM. For `Cc1ccc(-c2cc(N3CCN(S(=O)(=O)c4ccccc4C)CC3)ncn2)cc1` [Compound 4E], the IC50 was less than 1 µM. For `Cc1cccc(N2CCN(S(=O)(=O)c3c(C)nn(-c4ccc(F)cc4)c3C)CC2)c1C` [Compound 4F], the IC50 was less than 1 µM. `Cc1nn(-c2ccc(Cl)cc2)c(C)c1S(=O)(=O)N1CCN(c2ccccn2)CC1` [Compound 4G] gave an IC50 of less than 1 µM. Work on `CC(=O)c1ccc(N2CCN(S(=O)(=O)c3c(C)nn(-c4ccc(C)cc4)c3C)CC2)cc1` [Compound 4H] yielded an IC50 of less than 1 µM. Work on `Cc1cccc(-c2cc(N3CCN(S(=O)(=O)c4ccccc4C)CC3)ncn2)c1` [Compound 4I] yielded an IC50 of 1 to 20 µM. Molecule `Cc1nn(-c2ccccc2)c(C)c1S(=O)(=O)N1CCN(c2ccccn2)CC1` [Compound 4J] has an IC50 of 1 to 20 µM. With `Cc1nn(-c2ccc(F)cc2)c(C)c1S(=O)(=O)N1CCN(c2ncccn2)CC1` [Compound 4K] the IC50 was 1 to 20 µM. With `Cc1ccc(-n2nc(C)c(S(=O)(=O)N3CCN(c4ccccc4)CC3)c2C)cc1` [Compound 4L] the IC50 was 1 to 20 µM. `Cc1ccc(-n2nc(C)c(S(=O)(=O)N3CCN(c4ncccn4)CC3)c2C)cc1` [Compound 4M] gave an IC50 of 1 to 20 µM. With `Cc1nn(C)c(C)c1S(=O)(=O)N1CCN(c2cccc(Cl)c2)CC1` [Compound 4N] the IC50 was greater than 20 µM. `Cc1cccc(N2CCN(S(=O)(=O)c3c(C)nn(C)c3C)CC2C)c1` (stereo not shown) [Compound 4O] was tested, and the IC50 was greater than 20 µM. With `Cc1nn(C)c(C)c1S(=O)(=O)N1CCN(c2ccccc2F)CC1` [Compound 4P] the IC50 was greater than 20 µM. `Cc1nn(C)c(C)c1S(=O)(=O)N(CC(=O)N1CCN(c2ncccn2)CC1)c1ccc(C(C)C)cc1` [Compound 4Q] gave an IC50 greater than 20 µM. With `Cc1cccc(-c2cc(N3CCN(S(=O)(=O)c4ccc(C)cc4C)CC3)ncn2)c1` [Compound 4R] the IC50 was greater than 20 µM. `Cc1cccc(-c2cc(N3CCN(S(=O)(=O)c4cnn(C(F)F)c4C)CC3)ncn2)c1` [Compound 4S] showed an IC50 greater than 20 µM. `Cc1c(S(=O)(=O)N2CCN(c3cc(-c4ccc(F)cc4)ncn3)CC2)cnn1C(F)F` [Compound 4T] gave an IC50 greater than 20 µM. Molecule `Cc1ccc(-c2cc(N3CCN(S(=O)(=O)c4ccc(C)cc4C)CC3)ncn2)cc1` [Compound 4U] has an IC50 greater than 20 µM. `Cc1ccccc1S(=O)(=O)N1CCN(c2cc(-c3ccccc3)ncn2)CC1` [Compound 4V] gave an IC50 greater than 20 µM. With `Cc1ccc(S(=O)(=O)N2CCN(c3cc(-c4ccccc4)ncn3)CC2)c(C)c1` [Compound 4W] the IC50 was greater than 20 µM. `Cc1c(S(=O)(=O)N2CCN(c3cc(-c4ccccc4)ncn3)CC2)cnn1C(F)F` [Compound 4X] gave an IC50 greater than 20 µM. Work on `COc1ccc(-c2cc(N3CCN(S(=O)(=O)c4cnn(C(F)F)c4C)CC3)ncn2)cc1` [Compound 4Y] yielded an IC50 greater than 20 µM. Molecule `COc1ccc(F)cc1-c1cc(N2CCN(S(=O)(=O)c3cnn(C(F)F)c3C)CC2)ncn1` [Compound 4Z] has an IC50 greater than 20 µM. `Cc1ccc(-c2cc(N3CCN(S(=O)(=O)c4cnn(C(F)F)c4C)CC3)ncn2)cc1` [Compound 4] gave an IC50 of less than 1 µM.

What follows are molecules tested on FOXC2-HMLER cells (assay: Confocal imaging of thymidine synced FOXC2-HMLER cells at metaphase). Details: not given.
Assay type: cell-based, human
Source text: Because Compound 1 induces a hyper-phosphorylated VIM phenotype, we sought to determine if Compound 1's engagement of VIM might interfere at an alternative stage of mitosis. We therefore performed time course confocal imaging studies of Compound 1 treated FOXC2-HMLER cells after their release from thymidine blocking-based cell cycle synchronization.
Compound 1 treatment also disrupted the ability of β-tubulin to faithfully form the fine spindle microtubules of the mitotic spindle, instead resulting in a compressed phenotype with radiating projections connecting unaligned chromosomes. To assess the uniqueness of this phenotype, we evaluated the metaphase phenotypes of other chemical inhibitors which have shown to alter mitotic progression. These included inhibitors of centromere-associated protein E (CENP-E, also called kinesin-7, GSK92395), kinesin spindle protein (KSP, also called Eg5, Ispinesib), polo like kinases (PLK1/2/3, BI2536), and aurora kinases (AURKA/B/C, VX-680).
For `CC(C)Oc1ccc(C(=O)N[C@H](CNC(=O)CN(C)C)Cc2ccc(-c3cn4cccc([C@H](C)O)c4n3)cc2)cc1Cl` [GSK92395], the “VIM filamentous structure at metaphase” value was “did not induce VIM filamentous collapse” and the “chromosome alignment to the metaphase plate” value was “unaligned chromosome phenotype”.

Source: US11759461B2, “Small molecule inhibitors of cancer stem cells and mesenchymal cancer types” (The Scripps Research Institute, priority 2017, dated 2023)
